In patent US20230355566A1, “POTENTIATION OF HELMINTH TREATMENT” (Elanco Tiergesundheit AG, priority 2019, published 2023):

What was measured:
[1] = test system: Fasciola hepatica (Sunny Corner isolate, Fashep-66), immature stage; assay: Efficacy and synergy against immature stage of Fasciola hepatica in experimentally infected sheep (Example 3); type: in vivo; conditions: closantel 3.75 mg/kg, combination 40 and 3.75 mg/kg; for % Efficacy using arithmetic mean / % Efficacy using geometric mean: single oral treatment day 42, diamphenethide 40 mg/kg, vs untreated control; for Fluke Count, arithmetic mean / Fluke Count, geometric mean: single oral treatment day 42 after infection, diamphenethide 40 mg/kg, live fluke in liver day 91
Procedure: In the following examples, all animals were confirmed free of infection with F. hepatica and found clinically healthy by a veterinarian prior to enrollment in the study. Doses were administered orally from suitably sized disposable syringes. The fluke counts and body weights were log-transformed (after adding a constant of 1 to the fluke counts only) and the distribution of the transformed data checked to see if they satisfied the assumption of normal distribution. Differences between treatment groups were analyzed by analysis of variance methods (ANOVA), as the assumptions of normal distribution were satisfied for log-transformed fluke count and log-transformed bodyweight, as well as for (untransformed) fluke measurements. Arithmetic […]), geometric […]), median and ranges were summarized for fluke counts, fluke measurements and bodyweight. A constant of one was applied for calculation of geometric means of fluke counts. The percentage efficacy for each treated group was calculated as follows: […] where FCC is the arithmetic mean fluke count of the control group and FCT is the arithmetic mean fluke count of the treated group. […] Note that expected synergy is defined as: […] Administered Concurrently with Closantel Against the Immature Stage of Fasciola hepatica Infections in Sheep This study was to assess the efficacy of […] (40 mg/kg) given concurrently with closantel (3.75 mg/kg), […] alone (40 mg/kg), and closantel alone (3.75 mg/kg) against F. hepatica in sheep (3-4 month Merino lambs) with treatment on day 42. This was a controlled, blinded, randomized study. On day 0, the sheep were experimentally infected with a single isolate of approximately 200 Sunny Corner ([…]-66) isolate F. hepatica metacercariae. The required number of […] up in carboxymethyl cellulose. Syringes were checked post-infection for retained […]. The infection was administered orally and each infective dose was followed by water administered orally. The sheep were randomized into treatment groups on the basis of day 41 body weight and allocated to groups as denoted in Table 3.1. Body weight was determined one day prior to treatment. All treatments were measured by volume and rounded to the nearest 0.1 mL. On day 42, and before feeding, the individual animals were treated once only with the treatment in Table 3.1. Once the animals had been treated they were returned to their pens and fed within one hour. Untreated control animals were also fed at this time. The liver with gall bladder and bile ducts intact were recovered from each animal on day 91 and processed for F. hepatica counts. The assessment of efficacy was based on the number of live fluke removed from the liver.

[2] = deacylation to DAMD; cited from earlier work
liver flukes = conditions: cited from earlier work
[3] = test system: Fasciola hepatica (Oberon isolate, Fashep-65), early immature stage; assay: Efficacy against early immature stage of Fasciola hepatica in experimentally infected sheep (Example 2); type: in vivo; conditions: closantel 10 mg/kg, combination 60 and 10 mg/kg
Procedure: In the following examples, all animals were confirmed free of infection with F. hepatica and found clinically healthy by a veterinarian prior to enrollment in the study. Doses were administered orally from suitably sized disposable syringes.
The fluke counts and body weights were log-transformed (after adding a constant of 1 to the fluke counts only) and the distribution of the transformed data checked to see if they satisfied the assumption of normal distribution. Differences between treatment groups were analyzed by analysis of variance methods (ANOVA), as the assumptions of normal distribution were satisfied for log-transformed fluke count and log-transformed bodyweight, as well as for (untransformed) fluke measurements.
Arithmetic means (Amean), geometric means (Gmean), median and ranges were summarized for fluke counts, fluke measurements and bodyweight. A constant of one was applied for calculation of geometric means of fluke counts.
The percentage efficacy for each treated group was calculated as follows:
% Efficacy=100×(FCC−FCT)/FCC
where FCC is the arithmetic mean fluke count of the control group and FCT is the arithmetic mean fluke count of the treated group. The formula was also applied using mean geometric fluke counts; these were calculated using log transformed data with 1 added as a constant to each fluke count and then subtracted following transformation.
Efficacy of Diamphenethide in Combination with Closantel in Oral Formulations Against the Early Immature Stage of Fasciola hepatica in Sheep
This study was to assess the efficacy of diamphenethide (60 mg/kg) given concurrently with closantel (10 mg/kg), diamphenethide alone (60 mg/kg), and closantel alone (10 mg/kg) against F. hepatica in sheep with treatment on day 14. This was a controlled, blinded, randomized study using […] Merino lambs.
On day 0, the sheep were experimentally infected with a target of 87 Oberon isolate (Fashep-65) F. hepatica metacercariae. The required number of metacercariae were prepared for infection in a water and 4% carboxymethylcellulose solution. Each infective dose was followed by water administered orally.
The sheep were randomized into treatment groups on the basis of day 11 body weight and allocated to groups as denoted in Table 2.1.
Body weight was determined on day 11 and doses were measured by volume and rounded to the nearest 0.1 mL. On day 14, and before feeding, the individual animals were treated once only with the Treatment in Table 2.1. Once the animals had been treated they were returned to their pens and fed within one hour. Untreated control animals were also fed at this time.
The liver with gall bladder and common bile duct intact were recovered on day 91 or 92 from each animal and processed for F. hepatica counts. […]

[4] = single oral treatment day 14, diamphenethide 60 mg/kg, vs untreated control
[5] = single oral treatment day 14 after infection, diamphenethide 60 mg/kg, live fluke in liver day 91 or 92

## Cc1cc(C(C#N)c2ccc(Cl)cc2)c(Cl)cc1NC(=O)c1cc(I)cc(I)c1O (stereo not drawn) [Closantel, N-[5-chloro-4-[(4-chlorophenyl)cyanomethyl]-2-methylphenyl]-2-hydroxy-3,5-diiodobenzamide]
[1]
  % Efficacy using arithmetic mean: 40.1%
  % Efficacy using geometric mean: 40.7%
  Fluke Count, arithmetic mean: 54.0
  Fluke Count, geometric mean: 51.6

## CC(=O)Nc1ccc(OCCOCCOc2ccc(NC(C)=O)cc2)cc1 [Diamphenethide, N-[4-[2-[2-(4-acetamidophenoxy)ethoxy]ethoxy]phenyl]acetamide]
[2]
  Metabolism: rapidly metabolized by deacylation
Liver flukes; flukes up to 6 weeks of age
  Activity against early immature flukes: highly effective
Liver flukes; maturing flukes
  Activity against flukes as they develop to maturity: progressively lower activity
[1]
  % Efficacy using arithmetic mean: 36.1%
  % Efficacy using geometric mean: 41.5%
  Fluke Count, arithmetic mean: 57.6
  Fluke Count, geometric mean: 50.9
[3]; [4]
  % Efficacy using arithmetic mean: 98.3%
  % Efficacy using geometric mean: 98.4%
[3]; [5]
  Fluke Count, arithmetic mean: 0.3
  Fluke Count, geometric mean: 0.3
